Values quoted from earlier work in US20120046172A1, “METHODS FOR USE OF TRIALKYLBENZYLAMMONIUM HALIDE COMPOSITIONS AS NON-SELECTIVE TERRESTRIAL PLANT HERBICIDES” (priority 2010, published 2012).

Assays:
wheat plants = details: compositions with ADBAC concentrations in the range of 0.1 to 1%; DD215228
bean plants = details: compositions with ADBAC concentrations in the range of 0.1 to 1%; DD215228

Substance: alkyldimethylbenzyl ammonium chloride [ADBAC]
- Effect on wheat plants (wheat plants): plant stunting
- Effect on bean plants (bean plants): leaf desiccation and defoliation
